Experimental data: US10239884B2, “Coelenterazine compounds and uses thereof” (KEIO UNIVERSITY, priority 2017, dated 2019)

What was measured:
[1] = target: T1, native Renilla Luciferase (RLuc) (Renilla reniformis, UniProt P27652); assay: Bioluminescence intensity, Renilla Luciferase luminescence system; format: biochemical; details: 2 μM substrate in PBS pH 7.4, cell lysate, maximum intensity over 1 second, relative value
T1 construct: expressed in transfected cells; host or cells: COST cells (so in the source)
T1 sequence (P27652 1-311): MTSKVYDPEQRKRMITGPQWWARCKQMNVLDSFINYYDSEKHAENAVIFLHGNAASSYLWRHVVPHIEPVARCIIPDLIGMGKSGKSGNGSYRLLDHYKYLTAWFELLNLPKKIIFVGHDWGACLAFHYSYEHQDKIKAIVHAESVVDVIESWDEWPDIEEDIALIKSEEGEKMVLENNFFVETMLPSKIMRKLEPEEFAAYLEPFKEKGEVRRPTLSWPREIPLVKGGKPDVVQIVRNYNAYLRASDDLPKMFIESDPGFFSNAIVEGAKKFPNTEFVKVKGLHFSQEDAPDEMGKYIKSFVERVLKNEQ
Description: The luciferases were respectively expressed in COST cells using an expression vector (pcDNA3.1(+), commercially available from Invitrogen) comprising the sequence encoding native Renilla Luciferase (RLuc) (trade name pGL4.75, commercially available from Promega) or an expression vector (trade name pcDNA3.1(+), commercially available from Invitrogen) comprising the sequence encoding a RLuc derivative RLuc8 or RLuc8.6-535 (Reference: Loening, A. M. et al., Nat. Methods, 2007, 4, 641-643.). The cells were lysed using a Renilla Luciferase Lysis Buffer (E291A, Promega), and the lysate was directly used as an enzyme solution. […] Bioluminescence was measured according to the protocol of Renilla Luciferase Assay System (Cat. No. E 2810; Promega). The luminescent substrate was dissolved in methanol to prepare a 2 mM solution. The solution was diluted to 2 μM with PBS buffer (pH 7.4), and the diluted solution was used as a substrate solution. […] The luminescence intensity was measured with a Berthold Lumat LB 9507 for 1 second, and indicated by the maximum luminescence intensity (I). The luminescence intensity of the native CTZ by RLuc8 was set to be 1.0, and the other bioluminescence intensities were normalized to be relative values to that of native CTZ.

RLuc8 [2] = target: T2, RLuc8 (Renilla reniformis, UniProt P27652, A143M/A55T/C124A/K136R/M185V/M253L/S130A/S287L); format: biochemical; details: 2 μM substrate in PBS pH 7.4, cell lysate, maximum intensity over 1 second, relative value
T2 construct: expressed in transfected cells; host or cells: COST cells (so in the source)
T2 sequence (P27652 whole entry A55T/C124A/S130A/K136R/A143M/M185V/M253L/S287L): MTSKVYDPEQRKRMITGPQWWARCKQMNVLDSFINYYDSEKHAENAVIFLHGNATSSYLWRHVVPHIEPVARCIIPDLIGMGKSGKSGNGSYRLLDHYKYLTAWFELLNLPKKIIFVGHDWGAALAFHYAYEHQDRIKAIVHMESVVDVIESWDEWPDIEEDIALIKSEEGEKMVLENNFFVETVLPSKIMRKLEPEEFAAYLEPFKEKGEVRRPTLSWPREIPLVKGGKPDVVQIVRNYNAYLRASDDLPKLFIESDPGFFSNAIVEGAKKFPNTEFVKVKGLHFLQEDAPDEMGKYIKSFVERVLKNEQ
Description: (§1) The luciferases were respectively expressed in COST cells using an expression vector (pcDNA3.1(+), commercially available from Invitrogen) comprising the sequence encoding native Renilla Luciferase (RLuc) (trade name pGL4.75, commercially available from Promega) or an expression vector (trade name pcDNA3.1(+), commercially available from Invitrogen) comprising the sequence encoding a RLuc derivative RLuc8 or RLuc8.6-535 (Reference: Loening, A. M. et al., Nat. Methods, 2007, 4, 641-643.). The cells were lysed using a Renilla Luciferase Lysis Buffer (E291A, Promega), and the lysate was directly used as an enzyme solution. […] Bioluminescence was measured according to the protocol of Renilla Luciferase Assay System (Cat. No. E 2810; Promega). The luminescent substrate was dissolved in methanol to prepare a 2 mM solution. The solution was diluted to 2 μM with PBS buffer (pH 7.4), and the diluted solution was used as a substrate solution. To 200 μL of the substrate solution, 4 μL of the cell lysate containing RLuc, RLuc 8 or RLuc8.6-535 was added to start the luminescent reaction. The luminescence intensity was measured with a Berthold Lumat LB 9507 for 1 second, and indicated by the maximum luminescence intensity (I). The luminescence intensity of the native CTZ by RLuc8 was set to be 1.0, and the other bioluminescence intensities were normalized to be relative values to that of native CTZ.

RLuc8 [3] = target: T2, RLuc8; format: biochemical; details: bioluminescence spectrum, ATTO LumiFL
Description: (§2) As in the method for measuring bioluminescence intensity described above, luminescence spectrum was measured according to the protocol of Renilla Luciferase Assay System (Cat. No. E 2810; Promega). The luminescence spectrum was measured using ATTO LumiFL. The maximum luminescence intensities were normalized to be relative values to 1.0 upon determination of the maximum luminescence wavelength.

RLuc8.6-535 [4] = target: T3, RLuc8.6-535 (Renilla reniformis, UniProt P27652, A123S/A143M/A55T/C124A/D154M/D162E/E155G/I163L/K136R/M185L/M253L/S130A/S287L); format: biochemical; parameters: expressed in transfected cells; host or cells: COST cells (so in the source); details: for RLuc8.6-535 luminescence intensity (%): 2 μM substrate in PBS pH 7.4, cell lysate, maximum intensity over 1 second, relative value
T3 sequence (P27652 whole entry A55T/A123S/C124A/S130A/K136R/A143M/D154M/E155G/D162E/I163L/M185L/M253L/S287L): as the sequence (P27652 whole entry A55T/C124A/S130A/K136R/A143M/M185V/M253L/S287L) above, with A123S, D154M, E155G, D162E, I163L, V185L counted along it
Description: as §1

RLuc8.6-535 [5] = target: T3, RLuc8.6-535; format: biochemical; parameters: expressed in transfected cells; host or cells: COST cells (so in the source); details: bioluminescence spectrum, ATTO LumiFL
Description: as §2

[6] = target: T4, Renilla Luciferase (RLuc) (Renilla reniformis, UniProt P27652); details: cited from earlier work
T4 sequence (P27652 1-311): T1 sequence (P27652 1-311)

ALuc24 = assay: Bioluminescence intensity, ALuc system test; format: biochemical; details: 1 μM substrate, relative to nCTZ/ALuc34
ALuc30 = assay: Bioluminescence intensity, ALuc system test; format: biochemical; details: 1 μM substrate, relative to nCTZ/ALuc34
ALuc16 = assay: Bioluminescence intensity, ALuc system test; format: biochemical; details: 1 μM substrate, relative to nCTZ/ALuc34
Description: (§3) The cells were lysed using a Renilla Luciferase Buffer (E291A; Promega), and the lysate was directly used as an enzyme solution. As luminescent substrates, native CTZ (Nanolight technology) and 6-Al2N3-CTZ (Example 17) were used. Bioluminescence was measured according to the protocol of a Renilla Luciferase Assay System (Cat. No. E2810; Promega). The luminescent substrate was dissolved in methanol to prepare a 1 mM solution. The solution was diluted to 1 μM with Promega buffer, and the diluted solution was used as a substrate solution. To 40 μL of the substrate solution, 10 μL of the cell lysate containing RLuc8.6-535, ALuc16, ALuc22, ALuc23 or ALuc34 was added for starting the luminescent reaction. Using Fujifilm LAS-4000, the luminescence intensities were measured 0 and 20 minutes after the start of the enzyme reaction. Further, from the results of bioluminescence intensity shown in FIG. 3, the bioluminescence intensities were summarized in Tables 4-1 and 4-2 below, where the luminescence intensities were normalized to be the relative values of nCTZ/ALuc34 (100%).

ALuc22 = assay: Bioluminescence intensity, ALuc system test; format: biochemical; details: 1 μM substrate, relative to nCTZ/ALuc34
Description: as §3

ALuc23 = assay: Bioluminescence intensity, ALuc system test; format: biochemical; details: 1 μM substrate, relative to nCTZ/ALuc34
Description: as §3

ALuc34 = assay: Bioluminescence intensity, ALuc system test; format: biochemical; details: for luminescence intensity (%): 1 μM substrate, relative to nCTZ/ALuc34
Description: as §3

RLuc8.6-535 [7] = target: T3, RLuc8.6-535; assay: Bioluminescence intensity, ALuc system test; format: biochemical; parameters: expressed in transfected cells; details: 1 μM substrate, relative to nCTZ/ALuc34
Description: as §3

NanoLuc = target: T5, NanoLuc (Oplophorus gracilirostris, UniProt Q9GV45, A31E/A60N/A81I/F95D/I117V/K70R/L54V/L99Q/M102K/N193R/P142E/Q151K/Q38R/Q45L/V71I/Y165I); details: combined with NanoLuc; cited from earlier work
T5 construct: literature Promega
T5 sequence (Q9GV45 28-196 with tags or gaps with the stated changes limits assumed): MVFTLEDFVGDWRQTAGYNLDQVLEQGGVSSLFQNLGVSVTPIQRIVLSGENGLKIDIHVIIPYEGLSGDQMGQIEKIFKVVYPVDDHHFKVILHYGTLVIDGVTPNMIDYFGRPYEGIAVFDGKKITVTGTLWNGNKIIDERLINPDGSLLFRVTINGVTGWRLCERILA

GLuc = assay: Bioluminescence intensity, ALuc system test; format: biochemical; details: 0 minutes after the start of measurement, 1 μM substrate, relative to nCTZ/ALuc34
[8] = test system: artificial bioluminescent enzyme (ALuc); details: same wavelength range (480-500 nm); cited from earlier work
[9] = ALuc24, 0 minutes after the start of measurement
[10] = ALuc24, 20 minutes after the start of measurement
[11] = ALuc30, 0 minutes after the start of measurement
[12] = ALuc30, 20 minutes after the start of measurement
[13] = ALuc16, 0 minutes after the start of measurement
[14] = ALuc16, 20 minutes after the start of measurement
[15] = ALuc22, 0 minutes after the start of measurement
[16] = ALuc22, 20 minutes after the start of measurement
[17] = ALuc23, 0 minutes after the start of measurement
[18] = ALuc23, 20 minutes after the start of measurement
[19] = ALuc34, 0 minutes after the start of measurement
[20] = ALuc34, 20 minutes after the start of measurement
[21] = RLuc8.6-535, 0 minutes after the start of measurement

SMILES | RLuc luminescence intensity (%) [1] [%] | RLuc8 luminescence intensity (%) (RLuc8 [2]) | RLuc8 half-width (nm) (RLuc8 [3]) | RLuc8 maximum luminescence wavelength (nm) (RLuc8 [3]) | RLuc8.6-535 luminescence intensity (%) (RLuc8.6-535 [4]) | RLuc8.6-535 half-width (nm) (RLuc8.6-535 [5]) | RLuc8.6-535 maximum luminescence wavelength (nm) (RLuc8.6-535 [5]) | luminescence intensity (%) (ALuc24; [9]) | luminescence intensity (%) (ALuc24; [10]) | luminescence intensity (%) (ALuc30; [11]) | luminescence intensity (%) (ALuc30; [12]) | luminescence intensity (%) (ALuc16; [13]) | luminescence intensity (%) (ALuc16; [14]) | luminescence intensity (%) (ALuc22; [15]) | luminescence intensity (%) (ALuc22; [16]) | luminescence intensity (%) (ALuc23; [17]) | luminescence intensity (%) (ALuc23; [18]) | luminescence intensity (%) (ALuc34; [19]) | luminescence intensity (%) (ALuc34; [20]) | luminescence intensity (%) (RLuc8.6-535 [7]; [21]) | also measured
O=c1c(Cc2ccc(O)cc2)nc2c(Cc3ccccc3)[nH]c(-c3ccc(OCCCO)cc3)cn1-2 [6-Alkyl3OH-CTZ] | 0.11 | 9.74 | [60] nm | 414 | 75.3 | [56] nm | 415 | – | – | – | – | – | – | – | – | – | – | – | – | – | luminescence intensity higher than that of DeepBlueC/RLuc8 (RLuc8.6-535 [4]; with RLuc8.6-535, versus conventional blue-shifted RLuc luminescence system (DeepBlueC/RLuc8)): 32 fold
O=c1c(Cc2ccccc2)nc2c(Cc3ccccc3)[nH]c(-c3ccccc3)cn1-2 [DeepBlueC (trade name), reference compound] | – | 2.30 | [57] nm | 416 | 5.80 | [51] nm | 410 | – | – | – | – | – | – | – | – | – | – | – | – | – | luminescence intensity relative to the native RLuc luminescence system [6]: about 4%; shift of luminescence wavelength to the shorter wavelength side compared to native CTZ [6]: about 80 nm; luminescence wavelength ([6]; emits light at around): around 400 nm
[N-]=[N+]=NCCOc1ccc(-c2cn3c(=O)c(Cc4ccc(O)cc4)nc-3c(Cc3ccccc3)[nH]2)cc1 [Example 6-Al2N3-CTZ] | – | – | – | – | – | – | – | 0.56 | 0.17 | 0.83 | 0.28 | 1.72 | 0.60 | 1.32 | 0.46 | 2.53 | 1.00 | 3.45 | 1.27 | 0.01 | luminescence intensity higher than that of native CTZ/ALuc34 (ALuc34; with ALuc34, immediately after the start of the measurement): about 3.4 fold
O=c1c(Cc2ccco2)nc2c(Cc3ccccc3)[nH]c(-c3ccccc3)cn1-2 [Furimazine] | – | – | – | – | – | – | – | – | – | – | – | – | – | – | – | – | – | – | – | – | luminescence intensity higher than that of the firefly luciferase luminescence system (NanoLuc): about 100 fold
Oc1ccc(Cc2nc3c(Cc4ccccc4)nc(-c4ccc(O)cc4)cn3c2O)cc1 [Native-CTZ, coelenterazine] | 10.7 | 80.5 | [98] nm | 484 | 100 | [111] nm | 538 | 0.40 | 0.31 | 0.28 | 0.21 | 0.43 | 0.42 | 0.65 | 0.42 | 0.58 | 0.58 | 1.0 | 1 | 0.05 | luminescence intensity (%) (GLuc): 0.08%; quantum yield of the RLuc luminescence system ([6]; CTZ as luminescent substrate): 0.05; luminescence intensity higher than that of the conventional RLuc luminescence system [8]: about 50 fold; luminescence intensity (%) (RLuc8.6-535 [7]; RLuc8.6-535, 20 minutes after the start of measurement): 0.05%
